In patent publication US5143911A, “Antibiotic C-3 di-hydroxyphenyl substituted cephalosporin compounds, compositions and method of use thereof” (Bristol-Myers Squibb Company, priority 1990, dated 1992):
Values after ≈ are worked out from the molar mass of the structure shown. Like-named read-outs stand apart in the source and are kept apart here.

Tests used:
Ps. aeruginosa (7) = test: MIC, two-fold serial agar dilution, Mueller-Hinton agar (geometric mean, group Gn-III); type: cell-based; conditions: Pseudomonas aeruginosa, 7 strains
Description: For a primary evaluation of some representative compounds of this invention, minimum inhibitory concentrations (MIC's) were determined against 32 strains of test organisms by two-fold serial agar dilution method in Mueller-Hinton agar.
GnIII: Ps. aeruginosa (7)

E. coli 255 = conditions: Escherichia coli, 255, 18 h, pH 7.2
E. coli Juhl = conditions: Escherichia coli, in Mus musculus, im, read-out: PD50
S. aureus Smith [1] = test: MIC against the infecting organism (Table 2); conditions: Staphylococcus aureus
C. freundii GN 7391 = conditions: Citrobacter freundii, GN7391, 18 h, pH 7.2
M. morgani 1510/9 = conditions: 18 h, pH 7.2
B. fragilis A 22534 = test: In vitro activity against anaerobes (MIC), two-fold serial agar dilution, GAM agar; type: cell-based; conditions: Bacteroides fragilis, A22534, Gn, Beta-Lactamase(+)
K. pneumoniae PCI 602 = conditions: Klebsiella pneumoniae, PCI602, 18 h, pH 7.2
S. aureus Smith [2] = conditions: Staphylococcus aureus, 18 h, pH 7.2
S. marcescens IPM-15 = conditions: Serratia marcescens, IPM15, 18 h, pH 7.2
X. maltophilia GN 12873 = conditions: Stenotrophomonas maltophilia, GN12873, 18 h, pH 7.2
P. rettgeri IPM-14 = conditions: Providencia rettgeri, IPM14, 18 h, pH 7.2
S. marcescens IPM-16 = conditions: Serratia marcescens, IPM16, 18 h, pH 7.2
P. cepacia A21213 = type: cell-based; conditions: Burkholderia cepacia, pH 7.2, 32° C. 18 hr, 10^6 cells/ml
P. cepacia No. 651 = conditions: Burkholderia cepacia, NO.651, 18 h, pH 7.2
B. subtilis PCI 219 = conditions: Bacillus subtilis, PCI219, 18 h, pH 7.2
S. aureus IPM-24 (MRSA) = conditions: Staphylococcus aureus, 18 h, pH 7.2
P. acnes A 21933 = test: In vitro activity against anaerobes (MIC); type: cell-based; conditions: Cutibacterium acnes, A21933, Gp
P. aeruginosa A20599 = type: cell-based; conditions: Pseudomonas aeruginosa, pH 7.2, 32° C. 18 hr, 10^6 cells/ml
P. aeruginosa 9843A = test: MIC against the infecting organism (Table 2); conditions: Pseudomonas aeruginosa
B. fragilis A 22021 = test: In vitro activity against anaerobes (MIC), two-fold serial agar dilution, GAM agar; type: cell-based; conditions: Bacteroides fragilis, A22021, Gn, Beta-Lactamase(-)
B. fragilis A 22533 = test: as above; type: cell-based; conditions: Bacteroides fragilis, A22533, Gn, Beta-Lactamase(+)

SMILES: CO/N=C(\C(=O)NC1C(=O)N2C(C(=O)O)=C(/C=C/COC(=O)c3ccc(O)c(O)c3)CS[C@H]12)c1csc(N)n1 (stereo partly shown) [Ia, 7-[(Z)-2-(2-Aminothiazol-4-yl)-2-methoxyiminoacetamido]-3-[(E)-3-(3,4-dihydroxybenzoyloxy)-1-propen-1-yl]-3-cephem-4-carboxylic acid]
- MIC (Ps. aeruginosa (7)): 1.9 µg/mL (≈ 3.3 µM)
- MIC (E. coli 255): 0.2 µg/mL (≈ 0.347 µM)
- ED50 (E. coli Juhl): 0.05 mg/kg
- MIC (S. aureus Smith [1]): 1.6 µg/mL (≈ 2.78 µM)
- MIC (C. freundii GN 7391): 12.5 µg/mL (≈ 21.7 µM)
- MIC (M. morgani 1510/9): 0.05 µg/mL (≈ 0.0869 µM)
- MIC (B. fragilis A 22534): > 50 µg/mL
- MIC (K. pneumoniae PCI 602): < 0.0063 µg/mL
- MIC (S. aureus Smith [2]): 1.6 µg/mL (≈ 2.78 µM)
- MIC (S. marcescens IPM-15): > 100 µg/mL
- MIC (X. maltophilia GN 12873): 50 µg/mL (≈ 86.9 µM)
- MIC (P. rettgeri IPM-14): 0.05 µg/mL (≈ 0.0869 µM)
- MIC (S. marcescens IPM-16): > 100 µg/mL
- MIC (P. cepacia A21213): > 100 µg/mL
- MIC (P. cepacia No. 651): 12.5 µg/mL (≈ 21.7 µM)
- MIC (B. subtilis PCI 219): 0.2 µg/mL (≈ 0.347 µM)
- MIC (S. aureus IPM-24 (MRSA)): > 100 µg/mL
- MIC (P. acnes A 21933): 0.4 µg/mL (≈ 0.695 µM)
- MIC (P. aeruginosa A20599): 3.1 µg/mL (≈ 5.39 µM)
- MIC (P. aeruginosa 9843A): 3.1 µg/mL (≈ 5.39 µM)
- MIC (B. fragilis A 22021): 0.2 µg/mL (≈ 0.347 µM)
- MIC (B. fragilis A 22533): > 50 µg/mL
